{
  "source": "patent US20070105721A1",
  "about": "“Vinylogous 4-Hpyrones and their use in promoting plant growth” (priority 2003, published 2007); as to Germination (%), Leek: tested at 0.1 ppm; as to Germination (%), Parsley: tested at 0.1 ppm; as to Germination, Conostylis aculeata: tested at 0.1 ppm; as to Germination, Passerina vulgaris: tested at 0.1 ppm; as to Germination, Rhodocoma arida: tested at 0.1 ppm; as to Germination, Stylidium affine: tested at 0.1 ppm; as to Germination, Syncarpha vestita: tested at 0.1 ppm",
  "format_in_all_cases": "in vivo",
  "key": {"[1]": {"test_system": "intact or de-hulled Microlaena stipoides seeds", "assay": "Compound 1a as a replacement for de-hulling of grass species", "settings": "100 ppb compound 1a", "description": "Intact or de-hulled seeds were employed for this experiment. Seeds were de-hulled manually by carefully extracting the seeds from the surrounding palea and lemma. Three replicates of 25 intact or de-hulled seeds were placed on Petri dishes lined with seed germination paper. The Petri dishes were moistened with de-ionised water (control) or 100 ppb compound 1a. All species were incubated in constant darkness at 18° C. Germination (radicle emergence) was recorded every 2-3 days until germination had ceased."}, "Echinacea angustifolia": {"test_system": "Echinacea angustifolia", "assay": "Stimulation of germination in nutriceutically important plants", "description": "Three replicates of 25 seeds were placed on Petri dishes lined with seed germination paper. The Petri dishes were moistened with de-ionised water (control), 10 or 100 ppb compound 1a. Seeds were incubated in constant darkness at 18° C. Germination (radicle emergence) was recorded every 2-3 days until germination had ceased."}, "test species": {"test_system": "test species", "assay": "Germination tests in a range of test species", "settings": "each of the test species", "description": "Grand Rapids Lettuce seeds (Waltham strain) were obtained from R.B. Dessert Seed Co. and were frozen in sachets until use. For testing of aqueous samples, 2.5 mL of test solution was applied to three replicates of 40-50 seeds in Petri dishes (90 mm) lined with two layers of Whatman No. 1 filter paper (7 cm). Millipore filtered water (MP water) was used as a control for each experiment and dilutions of each sample were used to ensure the optimum concentration range for activity. Fractions were reconstituted to their original concentration (before fractionation) and dilutions were made using MP water. Petri dishes were sealed with a layer of plastic wrap, and stored in a light proof container. All manipulations involving the seed were carried out in a dark room and germinants, based on the appearance of a radicle, were scored after 48 hours incubation.\nConostylis aculeata and Stylidium affine seeds were obtained from Nindethana seed service and stored before use. For testing of aqueous samples, three replicates of 20-30 sterilised seeds were added to UV sterilised petri dishes (90 mm), containing two Whatman No. 1 filter papers (7 cm) moistened with the filtered test solution (2.5 mL, 0.22 μm). […] The seeds were scored on a weekly basis with optimum germination achieved between 4-6 weeks."}, "Opercularia vaginate": {"test_system": "Opercularia vaginate", "assay": "Seed priming; also: tested at 0.1 ppm", "settings": "24 hr priming in 100 ppb compound 1a, re-drying and sowing", "description": "(§1) For testing on Australian species, three replicates of 25 seeds were soaked in one of de-ionised DI water or 100 ppb compound 1a for 24 hr at 23° C. The seeds were re-dried at 23° C. for 24 hr and incubated on Petri dishes containing 0.7% (w/v) water agar in constant darkness at 18° C. Germination (radicle emergence) was recorded every 2-3 days until germination had ceased."}, "Borya sphaerocephala": {"test_system": "Borya sphaerocephala", "assay": "Seed priming", "settings": "24 hr priming in 100 ppb compound 1a, re-drying and sowing", "description": "as §1"}, "Phyllanthus calycinus": {"test_system": "Phyllanthus calycinus", "assay": "Seed priming", "settings": "24 hr priming in 100 ppb compound 1a, re-drying and sowing", "description": "as §1"}, "Cherianthera preissiana": {"test_system": "Cherianthera preissiana", "assay": "Seed priming", "settings": "24 hr priming in 100 ppb compound 1a, re-drying and sowing", "description": "as §1"}, "Centrolepis aristate": {"test_system": "Centrolepis aristate", "assay": "Seed priming", "settings": "24 hr priming in 100 ppb compound 1a, re-drying and sowing", "description": "as §1"}, "Lawrencella davenportii": {"test_system": "Lawrencella davenportii", "assay": "Germination on moist filter paper in petri dishes", "settings": "SW 1/10 dilution, compound 1a 10 ppb"}, "Rhodocoma arida": {"test_system": "Rhodocoma arida", "assay": "Germination enhancement of species used in amenity horticulture", "settings": "compound 1a at 100 ppb; constant darkness at 18° C.", "description": "(§2) For each species, three replicates of 25 seeds were placed on Petri dishes lined with seed germination paper. The Petri dishes were moistened with de-ionised water (control) or 100 ppb compound 1a. All species were incubated in constant darkness at 18° C. Germination (radicle emergence) was recorded five times a week."}, "Conostylis aculeata": {"test_system": "Conostylis aculeata", "assay": "Germination enhancement of species used in amenity horticulture", "settings": "compound 1a at 100 ppb; constant darkness at 18° C.; mean ± standard error", "description": "as §2"}, "Stylidium affine": {"test_system": "Stylidium affine", "assay": "Germination enhancement of species used in amenity horticulture", "settings": "compound 1a at 100 ppb; constant darkness at 18° C.", "description": "as §2"}, "Passerina vulgaris": {"test_system": "Passerina vulgaris", "assay": "Germination enhancement of species used in amenity horticulture", "settings": "compound 1a at 100 ppb; constant darkness at 18° C.", "description": "as §2"}, "Syncarpha vestita": {"test_system": "Syncarpha vestita", "assay": "Germination enhancement of species used in amenity horticulture", "settings": "compound 1a at 100 ppb; constant darkness at 18° C.", "description": "as §2"}, "Caulanthus heterophyllus": {"test_system": "Caulanthus heterophyllus", "assay": "Germination on moist filter paper in petri dishes", "settings": "SW 1/10 dilution, compound 1a 10 ppb"}, "[2]": {"test_system": "Emmenanthe penduliflora seeds", "assay": "Duration of priming required to induce a germination response", "settings": "priming in 100 ppb compound 1a, re-drying then incubation; FIG. 5", "description": "To determine the duration of priming required to induce a germination response, three replicates of 20 seeds of Emmenanthe penduliflora were soaked in at 23° C. in a 100 ppb compound 1a solution for 1, 5, 10, 20, 40 or 80 min or 3, 6, 12, 24 or 48 hr. The seeds were re-dried for 24 hr at 23° C. and placed on Petri dishes lined with seed germination paper and moistened with de-ionised water. The Petri dishes were incubated at 18° C. in constant darkness. Germination (radicle emergence) was recorded every 2-3 days until germination had ceased."}, "[3]": {"test_system": "Petroselinium crispum (parsley) seeds", "assay": "Seed vigour enhancement", "settings": "100 ppb compound 1a", "description": "(§3) For each species, five replicates of 20 seeds were placed on Petri dishes lined with seed germination paper. The Petri dishes were moistened with de-ionised water (control) or 100 ppb compound 1a. All species were incubated in constant darkness at 12/12 hr alternating temperatures of 7/18° C., 13/26° C. or 18/33° C. Germination was scored on radicle emergence and was recorded every 2-3 days until germination had ceased."}, "[4]": {"test_system": "Allium ampeloprasum (leek) seeds", "assay": "Seed vigour enhancement", "settings": "100 ppb compound 1a", "description": "as §3"}, "Camissonia califomica": {"test_system": "Camissonia califomica", "assay": "Germination on moist filter paper in petri dishes", "settings": "SW 1/10 dilution, compound 1a 10 ppb"}, "[5]": {"settings": "26/13 ° C. 12/12 hr alternating"}, "[6]": {"settings": "33/18 ° C. 12/12 hr alternating"}},
  "data": [
    {"smiles": "Cc1c2ccocc-2oc1=O", "note": "[Compound 1a, 3-Methyl-2H-furo[2,3-c]pyran-2-one]", "values": [
      {"measurement": "Germination (%), Microlaena stipoides", "setting": "[1]; De-hulled seeds", "result": "100 ± 0.0", "unit": "a %"},
      {"measurement": "Germination (%), Microlaena stipoides", "setting": "[1]; Intact seeds", "result": "78.3 ± 6.3", "unit": "b %"},
      {"measurement": "germination of Echinacea angustifolia", "setting": "Echinacea angustifolia; 10 ppb compound 1a, mean ± standard error", "result": "58.0 ± 5.5", "unit": "b"},
      {"measurement": "germination of Echinacea angustifolia", "setting": "Echinacea angustifolia; 100 ppb compound 1a", "result": "74.0 ± 4.0", "unit": "b"},
      {"measurement": "concentration for which germination promoting activity has been shown", "setting": "test species", "result": 100, "unit": "ppt"},
      {"measurement": "Germination (%), Opercularia vaginate", "setting": "Opercularia vaginate", "result": "22.7 ± 7.4", "unit": "b %"},
      {"measurement": "Germination (%), Borya sphaerocephala", "setting": "Borya sphaerocephala", "result": "13.3 ± 4.8", "unit": "b %"},
      {"measurement": "Germination (%), Phyllanthus calycinus", "setting": "Phyllanthus calycinus", "result": "17.3 ± 1.3", "unit": "b %"},
      {"measurement": "Germination (%), Cherianthera preissiana", "setting": "Cherianthera preissiana", "result": "46.7 ± 4.8", "unit": "b %"},
      {"measurement": "Germination (%), Centrolepis aristate", "setting": "Centrolepis aristate", "result": "88.0 ± 0.0", "unit": "b %"},
      {"measurement": "Germination, Lawrencella davenportii", "setting": "Lawrencella davenportii", "result": "56.3 (±8.5) b %"},
      {"measurement": "Germination, Rhodocoma arida", "setting": "Rhodocoma arida", "result": "53.3 ± 3.1", "unit": "b"},
      {"measurement": "Germination, Conostylis aculeata", "setting": "Conostylis aculeata", "result": "48.2 ± 3.9", "unit": "b"},
      {"measurement": "Germination, Stylidium affine", "setting": "Stylidium affine", "result": "83.4 ± 3.7", "unit": "b"},
      {"measurement": "Germination, Passerina vulgaris", "setting": "Passerina vulgaris", "result": "10.0 ± 4.1", "unit": "b"},
      {"measurement": "Germination, Syncarpha vestita", "setting": "Syncarpha vestita", "result": "77.5 ± 6.3", "unit": "b"},
      {"measurement": "Germination, Caulanthus heterophyllus", "setting": "Caulanthus heterophyllus", "result": "97.3 (±0.7) b %"},
      {"measurement": "duration of priming sufficient to induce germination promotion", "setting": "[2]", "result": 1, "unit": "min"},
      {"measurement": "Germination (%), Parsley", "setting": "[3]; 18/7 ° C. 12/12 hr alternating", "result": "27.0 ± 1.9", "unit": "a %"},
      {"measurement": "Germination (%), Parsley", "setting": "[3]; [5]", "result": "70 ± 5.6", "unit": "b %"},
      {"measurement": "Germination (%), Parsley", "setting": "[3]; [6]", "result": "29.0 ± 6.8", "unit": "b %"},
      {"measurement": "Germination (%), Leek", "setting": "[4]; 18/7 ° C. 12/12 hr alternating, mean ± standard error", "result": "97.1 ± 0.9", "unit": "a %"},
      {"measurement": "Germination (%), Leek", "setting": "[4]; [5]", "result": "92.0 ± 4.3", "unit": "a %"},
      {"measurement": "Germination (%), Leek", "setting": "[4]; [6]", "result": "72.0 ± 6.3", "unit": "b %"},
      {"measurement": "Germination, Camissonia califomica", "setting": "Camissonia califomica", "result": "85.3 (±4.8) b %"}
    ]}
  ]
}
